Test: Inhibition of Escherichia coli BL21-A1 MurD

First: O=C(O)CC[C@@H](NS(=O)(=O)c1ccc2cc(OCc3ccccc3)ccc2c1)C(=O)O
Second: O=C(O)CC[C@@H](NS(=O)(=O)c1ccc2cc(OCCCc3ccccc3)ccc2c1)C(=O)O
The IC50 of the first is 1.8-fold higher: 239 µM for the first, 132 µM for the second. The second is the more potent here.

Compared with CCCCOc1ccc2cc(S(=O)(=O)N[C@@H](CCC(=O)O)C(=O)O)ccc2c1, CCCCOc1ccc2cc(S(=O)(=O)N[C@H](CCC(=O)O)C(=O)O)ccc2c1 is 2.5-fold lower in IC50: 710 µM for the first, 280 µM for the second.

Compared with O=C(O)CC[C@@H](NS(=O)(=O)c1ccc2cc(OCC(=O)O)ccc2c1)C(=O)O, CCOC(=O)COc1ccc2cc(S(=O)(=O)N[C@H](CCC(=O)O)C(=O)O)ccc2c1 is 3.3-fold lower in IC50: 630 µM for the first, 192 µM for the second. The second is the more potent here.

Going from O=C(O)CC[C@@H](NS(=O)(=O)c1ccc2cc(OC3CCCC3)ccc2c1)C(=O)O to CCCCOc1ccc2ccc(S(=O)(=O)N[C@H](CCC(=O)O)C(=O)O)cc2c1, the IC50 falls from 400 µM to 180 µM (2.2-fold). The second is the more potent here.

With O=C(O)CC[C@@H](NS(=O)(=O)c1ccc2ccccc2c1)C(=O)O the IC50 was 810 µM.
